Source: patent US9296785B2, “IL-13 receptor binding peptides” (Wake Forest University Health Sciences, priority 2009, dated 2016)

Assays:
[1] = system: U-251 MG GBM cells; assay: Morphology of U-251 MG GBM cells after treatment; type: cell-based; settings: over-expressor of IL-13Rα2, 1 to 20 μM or equimolar concentrations
Text: (§1) We have designed double-specificity therapeutic delivery systems, which not only specifically recognize cancer cells, but also enable intracellular distribution of anti-cancer agents to their respective sites of action, like the cytosol, mitochondria and/or nucleus. Some cationic peptides lyse negatively charged mitochondrial membranes of a eukaryotic cell, leading to initiation of caspase-3 dependent cell death. We have chosen one such peptide, (KLAKLAK)2 [SEQ ID NO:1, KK] to target the mitochondria of glioblastoma multiforme (GBM) brain tumor cells. To target GBM cells, we exploited interleukin 13 receptor alpha 2 (IL-13Rα2), an IL-13 plasma membrane receptor which is over-expressed in 75% of GBM patients. To enable intracytosolic delivery of the KK peptide mediated first by the IL-13Rα2, we use Pseudomonas exotoxin A (PE) domain II [D2] based delivery vector. D2 of PE is responsible for the processing and translocation of the internalized toxin and any other protein/agent fused to its C-terminal end from the endosome to the cytosol. Thus, we have generated single chain fusion proteins composed of IL-13, D2 and KK: IL-13.D2 and IL-13.D2.KK, respectively. These proteins were expressed in BL21 (λDE3) E. coli under the bacteriophage T7 promoter control and were further processed and purified by the FPLC system to >95% purity. […]

[2] = system: U-87 MG GBM cells; assay: Morphology of U-87 MG GBM cells after treatment; type: cell-based; settings: over-expressor of IL-13Rα2, 1 to 20 μM or equimolar concentrations
Text: as §1

(KLAKLAK)2 (KLAKLAKKLAKLAK; Amphipathic antimicrobial peptide sequence) [KK peptide]
effect on cell morphology [1]: did not have any measurable effect
effect on cell morphology [2]: did not have any measurable effect
